Key:
[1] = tested on: patients with idiopathic pulmonary fibrosis; assay: Phase 2 trial NCT04419506: treatment-emergent adverse events; details: for mean observed weight loss: over 12 weeks; for Any adverse event: 18 mg twice daily, 12 weeks
Excerpt: The study was a double-blind, placebo-controlled, parallel-design, Phase 2 study performed at 90 sites in 22 countries. […] After completion of the 12-week treatment period, patients entered a 1-week follow-up period. Patients who prematurely discontinued study medication were asked to attend all visits as originally planned to minimize missing data. […] Patients, investigators, central reviewers, and those involved in the study conduct and analysis were unaware of the treatment assignments. An interactive voice-response system was used to perform randomization.
The secondary endpoint was the percentage of patients with treatment-emergent adverse events.
All treated patients were included in the safety analysis, stratified by use of background antifibrotics (no or yes), and the analysis was descriptive in nature. Safety was assessed by clinical and laboratory evaluation and the recording of treatment-emergent adverse events, as coded with the use of the Medical Dictionary for Regulatory Activities, version 22.0.

[2] = tested on: bleomycin-induced lung fibrosis; assay: Rat bleomycin model of pulmonary fibrosis; assay type: in vivo, Wistar rats
Method: Pulmonary remodeling was induced in rats by a single intratracheal administration of 1 mg/kg bleomycin.
Adult, test-naïve, male Wistar rats (WI(Han)); 280-300 g) were purchased from Janvier (Janvier Labs, Le Genest-Saint-Isle, France). All animal experimentation was conducted in accordance with German national guidelines and legal regulations and approved by the ethical committee Regierungspräsidium Tübingen (Germany) (Permit Number: 12-012).
Bleomycin was dissolved in phosphate buffered saline (PBS) to a final concentration of […]. On day 0, animals were transiently anaesthetised with isoflurane (3-4%) in oxygen. Using a 1 ml-Syringe with a 22-gauge flexible cannula, 200 μL/kg of either saline or bleomycin (final dose 1 mg/kg) were administered intratracheally.
The PDE4-inhibitor of formula A′ was dissolved in 0.5% hydroxyethyl cellulose containing 0.01% Tween20 and applied by oral gavage at a dose of 2.5 mL/kg twice daily at 06:00 and 18:00 from day 10 until day 20.
On day 18, animals were anaesthetized using 3-4% isoflurane and placed on the μCT (Quantum FX) scanner mounting plate. After measurement, animals were returned to the home cage for recovery. During imaging, synchronization procedures were employed for avoidance of motion blur (respiration, heart beat) thereby improving the quality of the images. The reconstruction of the three-dimensional pictures from the raw data could subsequently be performed.
Animals were anaesthetised with Narcoren (60 mg/mL/kg body weight i.p.) and Ketamine (0.5-1 mg/animal, i.m.). The trachea was exposed, a small incision made, and a tracheal tube fixed within the trachea by a ligature. Spontaneous breathing was suppressed by pancuronium (0.8 mg/kg; 1 mL/kg body weight, i.v.) and animals were mechanically ventilated with a tidal volume of 10 mL/kg, breathing frequency of 90 breaths/minute and a positive end expiratory pressure of 3 cmH2O. Airway resistance, compliance, elastance and pressure volume loop was determined by means of a FlexiVent system supported by software version 7.2. To perform the lung function measurement the template “FlexiVent FX-Rat Default-rel.B” with the script “Rat 6basic_1loop v7.0 Lamb” was used. A deep inspiration to total lung capacity (Deep Inflation) was performed with an inflation pressure limited to 30 cmH2O. A “Snapshot-90 v7.0, Quick Prime-3 v7.0, PVS-V v7.0 and PVs-P v7.0 measurement was subsequently conducted. After the lung function measurement animals were euthanized by an overdose of Narcoren (0.16 g/5 ml, 1 ml/animal i.v.).
The right main bronchus was occluded with a ligature and the right lung was removed. […]
All data are presented as means±S.E.M. of n animals. Statistical differences between groups were analyzed by the non-clinical statistical group.

[3] = with background antifibrotics (N = 49)
[4] = without background antifibrotics
[5] = without background antifibrotics (N = 48)

Which results are given for `[O-][S@+]1CCc2nc(N3CCC(c4ncc(Cl)cn4)CC3)nc(NC3(CO)CCC3)c21` [Compound of formula A′]?
mean observed weight loss ([1]; group with antifibrotics): -1.41 kg; mean observed weight loss ([1]; group without antifibrotics): -0.76 kg; patients with fatal adverse events ([1]; treatment arm, both background groups together): 2 patients; discontinuation of the study because of adverse events ([1]; with background antifibrotics): 10 patients; patients with gastrointestinal disorders ([1]; with background antifibrotics): 36.7%; patients with serious adverse events ([1]; with background antifibrotics): 6.1%; patients with severe adverse events ([1]; with background antifibrotics): 4.1%; Adverse events leading to discontinuation of study drug [1, 3]: 10 (20.4) n (%); Asthenia [1, 3]: 1 (2.0) n (%); Cough [1, 3]: 4 (8.2) n (%); Decreased appetite [1, 3]: 2 (4.1) n (%); Diarrhea [1, 3]: 15 (30.6) n (%); Diarrhea leading to discontinuation [1, 3]: 3 (6.1) n (%); Dyspepsia [1, 3]: 2 (4.1) n (%); Dyspnea [1, 3]: 0 (0.0) n (%); Fatigue [1, 3]: 1 (2.0) n (%); Flatulence [1, 3]: 2 (4.1) n (%); Gastrointestinal disorders [1, 3]: 18 (36.7) n (%); General disorders and administration site conditions [1, 3]: 7 (14.3) n (%); Headache [1, 3]: 3 (6.1) n (%); Infections and infestations [1, 3]: 7 (14.3) n (%); Investigations [1, 3]: 10 (20.4) n (%); Investigator-defined drug-related adverse events [1, 3]: 18 (36.7) n (%); Metabolism and nutrition disorders [1, 3]: 3 (6.1) n (%); Nasopharyngitis [1, 3]: 4 (8.2) n (%); Nausea [1, 3]: 1 (2.0) n (%); Nervous system disorder [1, 3]: 9 (18.4) n (%); Patients with pre-specified adverse events of special interest (vasculitis and hepatic injury) [1, 3]: 1 (2.0) n (%); Respiratory thoracic and mediastinal disorders [1, 3]: 6 (12.2) n (%); Serious adverse events: All [1, 3]: 3 (6.1) n (%); Serious adverse events: Other comparable medical criteria [1, 3]: 0 (0.0) n (%); Serious adverse events: Required or prolonged hospitalization [1, 3]: 3 (6.1) n (%); Serious adverse events: Resulted in death [1, 3]: 1 (2.0) n (%); Severe adverse events [1, 3]: 2 (4.1) n (%); Vomiting [1, 3]: 2 (4.1) n (%); Weight decreased [1, 3]: 1 (2.0) n (%); Any adverse event [1, 3]: 36 (73.5) n (%); patients with serious adverse events ([1]; without antifibrotics): 6.3%; discontinuation of the study because of adverse events [1, 4]: 3 patients; patients with gastrointestinal disorders [1, 4]: 27.1%; patients with severe adverse events [1, 4]: 4.2%; Adverse events leading to discontinuation of study drug [1, 5]: 3 (6.3) n (%); Asthenia [1, 5]: 3 (6.3) n (%); Cough [1, 5]: 3 (6.3) n (%); Decreased appetite [1, 5]: 1 (2.1) n (%); Diarrhea [1, 5]: 8 (16.7) n (%); Diarrhea leading to discontinuation [1, 5]: 0 (0.0) n (%); Dyspepsia [1, 5]: 3 (6.3) n (%); Dyspnea [1, 5]: 3 (6.3) n (%); Fatigue [1, 5]: 2 (4.2) n (%); Flatulence [1, 5]: 3 (6.3) n (%); Gastrointestinal disorders [1, 5]: 13 (27.1) n (%); General disorders and administration site conditions [1, 5]: 9 (18.8) n (%); Headache [1, 5]: 3 (6.3) n (%); Infections and infestations [1, 5]: 6 (12.5) n (%); Investigations [1, 5]: 5 (10.4) n (%); Investigator-defined drug-related adverse events [1, 5]: 9 (18.8) n (%); Metabolism and nutrition disorders [1, 5]: 1 (2.1) n (%); Nasopharyngitis [1, 5]: 0 (0.0) n (%); Nausea [1, 5]: 2 (4.2) n (%); Nervous system disorder [1, 5]: 4 (8.3) n (%); Patients with pre-specified adverse events of special interest (vasculitis and hepatic injury) [1, 5]: 0 (0.0) n (%); Respiratory thoracic and mediastinal disorders [1, 5]: 8 (16.7) n (%); Serious adverse events: All [1, 5]: 3 (6.3) n (%); Serious adverse events: Other comparable medical criteria [1, 5]: 1 (2.1) n (%); Serious adverse events: Required or prolonged hospitalization [1, 5]: 2 (4.2) n (%); Serious adverse events: Resulted in death [1, 5]: 1 (2.1) n (%); Severe adverse events [1, 5]: 2 (4.2) n (%); Vomiting [1, 5]: 1 (2.1) n (%); Weight decreased [1, 5]: 2 (4.2) n (%); Any adverse event [1, 5]: 31 (64.6) n (%); improvement in tissue volume (ratio of remodeled tissue to total lung volume) measured by μCT ([2]; 2.5 mg/kg oral twice daily, day 10 to day 20, μCT on day 18, bleomycin 1 mg/kg intratracheal, P<0.05): 64%; restoration of lung volume measured at a pressure of 30 cmH2O ([2]; oral twice daily, day 10 to day 20, FlexiVent, P<0.05): 31%; reduction of OPN levels in lung tissue ([2]; oral twice daily, day 10 to day 20, OPN ELISA of right lung homogenate): approx. 49%; lung function ([2]; therapeutic rat model of bleomycin-induced lung fibrosis): improved lung function

Source: US20240142467A1, “Use of Biomarkers in the Treatment of Fibrotic Conditions with a PDE4B-inhibitor” (Boehringer Ingelheim International GmbH, priority 2022, published 2024)
